Source: ChEMBL document CHEMBL1136756, “De novo design, synthesis, and evaluation of novel nonsteroidal phenanthrene ligands for the estrogen receptor” (J Med Chem, 2003)
pKi: −log10 of the molar value.

Experiments:
Estrogen receptor = target: T1, Estrogen receptor (Homo sapiens, UniProt P03372)
T1 sequence (P03372 whole entry): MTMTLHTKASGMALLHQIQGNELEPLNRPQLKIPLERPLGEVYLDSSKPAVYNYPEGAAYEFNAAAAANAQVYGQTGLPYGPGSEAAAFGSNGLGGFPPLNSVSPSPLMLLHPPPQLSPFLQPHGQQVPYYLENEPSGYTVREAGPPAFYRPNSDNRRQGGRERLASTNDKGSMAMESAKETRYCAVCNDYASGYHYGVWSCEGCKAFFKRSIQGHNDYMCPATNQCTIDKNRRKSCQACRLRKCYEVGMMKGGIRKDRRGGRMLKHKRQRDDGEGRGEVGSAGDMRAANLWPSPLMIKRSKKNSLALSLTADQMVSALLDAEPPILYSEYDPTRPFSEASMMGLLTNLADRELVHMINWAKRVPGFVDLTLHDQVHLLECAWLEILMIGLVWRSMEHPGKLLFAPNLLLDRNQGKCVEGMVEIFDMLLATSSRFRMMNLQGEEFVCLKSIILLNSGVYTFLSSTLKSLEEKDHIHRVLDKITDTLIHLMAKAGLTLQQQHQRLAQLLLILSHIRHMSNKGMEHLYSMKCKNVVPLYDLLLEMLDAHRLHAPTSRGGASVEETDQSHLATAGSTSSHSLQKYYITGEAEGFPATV
Description: In vitro displacement of 0.5 nM [3H]17-beta-estradiol from human Estrogen receptor alpha

Estrogen receptor beta = Estrogen receptor beta (Homo sapiens, UniProt Q92731)
Sequence of Estrogen receptor beta (Q92731 whole entry): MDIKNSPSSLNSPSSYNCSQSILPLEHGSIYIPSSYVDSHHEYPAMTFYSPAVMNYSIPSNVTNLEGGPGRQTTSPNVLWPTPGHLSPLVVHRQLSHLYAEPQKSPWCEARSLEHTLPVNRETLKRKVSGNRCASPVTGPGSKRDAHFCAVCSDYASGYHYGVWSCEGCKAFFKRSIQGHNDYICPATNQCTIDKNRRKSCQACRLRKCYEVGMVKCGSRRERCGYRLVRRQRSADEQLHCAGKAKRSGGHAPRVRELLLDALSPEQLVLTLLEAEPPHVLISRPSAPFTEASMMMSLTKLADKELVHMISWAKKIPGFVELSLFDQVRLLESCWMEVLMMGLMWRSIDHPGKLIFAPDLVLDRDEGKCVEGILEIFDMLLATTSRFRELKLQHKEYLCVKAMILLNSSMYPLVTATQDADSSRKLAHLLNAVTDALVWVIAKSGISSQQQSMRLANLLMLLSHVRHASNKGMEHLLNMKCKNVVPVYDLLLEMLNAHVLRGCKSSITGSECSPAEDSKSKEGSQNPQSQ
Description: In vitro displacement of 0.5 nM [3H]17-beta-estradiol from human Estrogen receptor beta

Structure (SMILES)	pKi (Estrogen receptor)	pKi (Estrogen receptor beta)
CCc1ccc2c(c1)C(c1ccc(OCCN3CCCCC3)cc1)Cc1cc(O)cc(C)c1-2 (stereo unspecified)	8.06	6.72
Cc1cc(O)cc2cc(-c3ccc(OCCN4CCCCC4)cc3)c3cc(C(=O)C(C)C)ccc3c12	6.31	< 6.00
Cc1cc(O)cc2cc(-c3ccc(OCCN4CCCCC4)cc3)c3cc(C(C)O)ccc3c12 (stereo unspecified)	–	6.72
CC(C)=C(C)c1ccc2c(c1)c(-c1ccc(OCCN3CCCCC3)cc1)cc1cc(O)cc(C)c12	6.68	6.70
C=C(C)c1ccc2c(c1)c(-c1ccc(OCCN3CCCCC3)cc1)cc1cc(O)cc(C)c12	6.54	6.74
CC(=O)c1ccc2c(c1)c(-c1ccc(OCCN3CCCCC3)cc1)cc1cc(O)cc(C)c12	< 6.00	6.20
